# Laboratory results: PubChem BioAssay AID2202554 (NIEHS Division of Translational Toxicology (DTT))
# Records with an inconclusive call do not appear. Active and inactive are the calls of the source. How the calls were made is not given here.
# System: S. typhimurium/E. coli reverse mutation, colony counts
# Assay: Bacterial reverse mutation test (aka Ames test) summary data;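 further: His-minus Salmonella and trp-minus E. coli WP2 uvrA pKM101 with or without liver S9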
# From the text: The Ames test uses bacteria cultures to determine whether a substance causes mutations. Because there is a significant overlap between substances that are mutagens and those that are carcinogens, a quick and inexpensive mutagenicity test is useful as an initial screening for possible carcinogens.
# The Ames test relies on specific strains of S. typhimurium, namely: TA97, TA98, TA100, TA102, TA104, TA1535, TA1537, and TA1538. In addition to the S. typhimurium strains, the test may also use the E. coli strain WP2 uvrA pKM101.
# Each of the bacterial strains has a mutation that prevents it from making an amino acid (a protein building block) required for normal cell growth. The S. typhimurium strains are unable to manufacture histidine; the E. coli strain cannot manufacture tryptophan. The tester strains will not be able to grow without amino acid supplementation, unless the mutated gene is changed back to the correct DNA sequence (reversion mutation). Being exposed to a mutagenic chemical increases the chance that the mutant gene will be restored to the correct sequence, which allows the bacteria to grow and form colonies. Each substance under study is tested in a variety of bacterial strains with different types of altered DNA sequences in order to provide a comprehensive assessment of the mutagenic potential of the substance.
# Some non-mutagenic substances are converted to mutagenic substances when metabolized by the liver; in contrast, some substances that are mutagenic in their natural state are converted to non-mutagens by the liver. All substances are tested in their natural state, as well as in the presence of liver enzymes that can produce this metabolic conversion of the test substance. Extracts of rat, hamster, or mouse liver enzymes (S9 mix) are used for this purpose.
# D. Preparing the Cultures
# Multiple sets of cultures are prepared using a range of doses and different amounts of liver enzymes for each bacterial strain. Each culture is prepared in a test tube containing a suspension of one bacterial strain and either an S9 mix or plain buffer solution. Then the test substance is added. Negative control cultures are established using the same ingredients, but without the test substance. Positive control cultures are established using known mutagens active in particular bacterial strains and metabolic conditions (for example, with or without S9). Once prepared, each culture is incubated for 20 minutes at 37° C. Agar is then added to the cultures, and the contents of each tube are poured onto the surface of a Petri dish that was prepared with standard bacterial culture medium. The plates are then incubated, usually for two days.
# Depending on the substance to be tested, the exposure and incubation processes may be modified. These variations include:
# - Elimination of the 20-minute incubation period in a test tube prior to plating (this method is referred to as the standard plate incorporation method)
# - Enzymatic reduction of azo and diazo substances (this process occurs in the intestine or liver of animals) using a chemical called flavin mononucleotide (FMN) or intestinal bacterial preparations from rats
# - Testing in sealed chambers such as desiccators for volatile and gaseous chemicals.
# To validate the test, a trained investigator compares the number of colonies on the chemical-treated plates to the number of colonies on the negative control plates. If the substance under test is mutagenic, the chemical-treated plates will have a much greater number of colonies than the negative control plates.
# - A positive response is a reproducible, dose-related increase in mutant colonies in any single strain, with or without the addition of S9 metabolic enzymes. While there is no minimum percentage of increase required for a result to be considered positive, a twofold increase in mutant colonies in a treated plate is usually considered to be a positive (mutagenic) response.
# […]
row,SMILES,outcome
1,O=C(O)CNCP(=O)(O)O,inactive; negative
2,ONc1ccccc1,active; positive
3,CC(CCN(C)C)N(C)C (configuration not stated),inactive; negative
4,C=CCSSCCC,inactive; negative
5,ClC(Cl)Cl,inactive; negative
6,O=c1[nH][nH]c(=O)c2cc([N+](=O)[O-])ccc12,active; positive
7,Cc1c(N)cccc1N,active; positive
8,O=C(O)C(Br)(Br)Br,active; positive
9,Nc1cc([N+](=O)[O-])ccc1O,active; positive
10,O=[N+]([O-])C(Br)=Cc1ccccc1,active; positive
11,Oc1c(Cl)cc(Cl)c(Cl)c1Cc1c(O)c(Cl)cc(Cl)c1Cl,inactive; negative
12,C=CC(=O)O,inactive; negative
13,Brc1ccc(Oc2ccc(Br)cc2Br)c(Br)c1,inactive; negative
14,O=C1c2c(Br)c(Br)c(Br)c(Br)c2C(=O)N1CCN1C(=O)c2c(Br)c(Br)c(Br)c(Br)c2C1=O,inactive; negative
15,O=CC(Cl)(Cl)Cl,active; weakly positive
16,Oc1ccc(Cl)cc1Cc1ccccc1,inactive; negative
17,c1cc2c3c(cccc3c1)CC2,inactive; negative
18,Cc1ccc([N+](=O)[O-])cc1C(=O)O,active; positive
19,NC(=O)NO,inactive; negative
20,CC(C)(C)N,inactive; negative
21,ClCCCl,active; positive
22,FCC1CO1 (configuration not stated),active; positive

row,SMILES,outcome
1,CN(C)CCN(Cc1ccccc1)c1ccccn1,inactive; negative
2,C=CCC,inactive; negative
3,CN(C)N=Nc1nc[nH]c1C(N)=O,active; positive
4,Brc1cc(Br)c(Oc2cc(Br)c(Br)cc2Br)cc1Br,inactive; negative
5,CN1CSC(=S)N(C)C1,active; weakly positive
6,O=C1OC(c2ccc(O)cc2)(c2ccc(OC3O[C@H](C(=O)O)[C@@H](O)[C@H](O)[C@H]3O)cc2)c2ccccc21 (some centres not stated),inactive; negative
7,CCCN(CCC)CCC,inactive; negative
8,C=CCOC(=O)c1ccccc1N,inactive; negative
9,O=C1C2CC=CCC2C(=O)N1SC(Cl)(Cl)Cl (configuration not stated),active; positive
10,Nc1c(N=Nc2ccc(-c3ccc(N=Nc4ccc(O)cc4)cc3)cc2)c(S(=O)(=O)O)cc2cc(S(=O)(=O)O)c(N=Nc3ccccc3)c(O)c12,active; positive
11,COc1ccc(Cc2nccc3cc(OC)c(OC)cc23)cc1OC,inactive; negative
12,ClC1=C(Cl)[C@]2(Cl)[C@@H]3[C@H]4C[C@H]([C@@H]5O[C@H]45)[C@@H]3[C@@]1(Cl)C2(Cl)Cl,inactive; negative
13,CC(C)[C@]12CC(=O)[C@H](C)[C@H]1C2,inactive; negative
14,CCN(CC)CCO,inactive; negative
15,ClC(Cl)(Cl)Cl,inactive; negative
16,CC(CN1c2ccccc2Sc2ccccc21)N(C)C (configuration not stated),inactive; negative
17,COc1cc(-c2ccc(N=C=O)c(OC)c2)ccc1N=C=O,active; positive
18,BrC/C=C/CBr,active; positive
19,Oc1cccc2cc3cccc(O)c3c(O)c12,inactive; negative
20,Nc1ccc(N)c(Cl)c1,active; positive
21,CSC(C)(C)C=NO,inactive; negative
22,Cc1ccc([N+](=O)[O-])c(C(=O)O)c1,active; positive

row,SMILES,outcome
1,ClC(Cl)(Cl)C1CO1 (configuration not stated),active; positive
2,c1ccc2occc2c1,inactive; negative
3,C=C(C)C(=O)OCC,inactive; negative
4,CCCCCC(=O)O,inactive; negative
5,CCOC(C=C(C)CCC=C(C)C)OCC,active; positive
6,CCCCCCCCCCCC(=O)[O][Sn]([CH2]CCC)([CH2]CCC)[O]C(=O)CCCCCCCCCCC,inactive; negative
7,c1cc(OCC2CO2)cc(OCC2CO2)c1 (configuration not stated),active; positive
8,O=c1cc(O)nc[nH]1,inactive; negative
9,C=CCC1(C(C)C#CCC)C(=O)N=C(O)N(C)C1=O (configuration not stated),inactive; negative
10,CCCCCCOCC1CO1 (configuration not stated),active; positive
11,CCc1nc(N)nc(N)c1-c1ccc(Cl)cc1,inactive; negative
12,IC(I)I,active; positive
13,CCOc1cc(C=O)ccc1O,inactive; negative
14,Cc1occc(=O)c1O,active; weakly positive
15,C=C(C)/C([O-])=N/[N+](C)(C)CC(C)O (configuration not stated),inactive; negative
16,CN(C)C(=S)N(C)C,inactive; negative
17,Nc1c2ccccc2nc2ccccc12,active; positive
18,O.O.O.O.O.O.O.O=S(=O)([O-])[O-].[Co+2],active; weakly positive
19,CCCCCCCCC=O,inactive; negative
20,Cc1nc2ccc(Cl)cc2[nH]1,active; positive
21,CN(C)c1nc(N(C)C)nc(N(C)C)n1,inactive; negative
22,C=C1C/C(=C/C)C(=O)O[C@@H]2CCN3CC=C(COC(=O)[C@@]1(O)CO)[C@H]23,active; positive

row,SMILES,outcome
1,O=C(CO)CO,active; positive
2,CCCC=O,inactive; negative
3,CCCC[n+]1ccccc1,inactive; negative
4,NCCNCCO,active; weakly positive
5,O=S1(=O)CC=CC1,inactive; negative
6,O=P1(N(CCCl)CCCl)NCCCO1 (configuration not stated),active; positive
7,Nc1cc(Cl)cc(Cl)c1,inactive; negative
8,O=C(OCC1CO1)c1cccc(C(=O)OCC2CO2)c1 (configuration not stated),active; positive
9,CCOP(=S)(OCC)Oc1cc(C)nc(C(C)C)n1,inactive; negative
10,C=CC(=C)C,inactive; negative
11,CCCCCCCC(=O)OCC(COC(=O)CCCCCCC)OC(=O)CCCCCCC,active; positive
12,COc1c2ccoc2cc2oc(=O)ccc12,active; positive
13,COc1ccc(O)cc1,inactive; negative
14,Oc1ccc2cc(SSc3ccc4cc(O)ccc4c3)ccc2c1,inactive; negative
15,CCCCCCCCCCCCCCCCC1CO1 (configuration not stated),inactive; negative
16,CCCCNCC,inactive; negative
17,CCCCOC(=O)c1ccccc1N,inactive; negative
18,C=CC1CC=CCC1 (configuration not stated),inactive; negative
19,CCCCOP(=O)(OCCCC)Oc1ccccc1,inactive; negative
20,c1ccc2sc(SSc3nc4ccccc4s3)nc2c1,active; positive
21,Nc1cc(C(=O)O)c(O)c(S(=O)(=O)O)c1,inactive; negative
22,O=C(O)C(=O)O,inactive; negative

row,SMILES,outcome
1,CCCCCCCCCCCCCCCCCC[N+](C)(C)Cc1ccccc1,inactive; negative
2,CCSCCC(N)C(=O)O (configuration not stated),inactive; negative
3,Cc1cccc(C)c1N,active; weakly positive
4,COc1ccc([N+](=O)[O-])cc1N=Nc1c(O)c(C(=O)Nc2cccc([N+](=O)[O-])c2)cc2ccccc12,active; positive
5,C1CCC2OC2C1 (configuration not stated),active; positive
6,CCCCCCCCCC=CCC1CC(=O)OC1=O (configuration not stated),inactive; negative
7,N#CCBr,inactive; negative
8,CCCCC(CC)COCCCN (configuration not stated),inactive; negative
9,Brc1c(Br)c(Br)c(Br)c(Br)c1Br,inactive; negative
10,ClCC(Cl)(Cl)Cl,inactive; negative
11,CCC=C1OC(=O)c2ccccc21,active; positive
12,O=[N+]([O-])c1cccc(Cl)c1Cl,active; weakly positive
13,O=C(O)c1cccc(Cl)c1,inactive; negative
14,C[CH2][Hg][S]c1ccccc1C(=O)O,inactive; negative
15,ClC(Cl)=C(Cl)C(Cl)=C(Cl)Cl,inactive; negative
16,O=CC=Cc1ccco1,inactive; negative
17,CCC(C)=O,inactive; negative
18,O=[N+]([O-])c1cccc2ccccc12,active; positive
19,CNNCc1ccc(C(=O)NC(C)C)cc1,inactive; negative
